Test results as given in BindingDB's records for doi:10.3109/14756369809021481 (Laboratoire De Chimie Bioorganique, 1998).

Each molecule was assayed against S-adenosylmethionine synthase isoform type-2 (Rattus norvegicus, UniProt P18298) (assay: Inhibition Assay). Conditions: pH 7.5; 37 °C.
Chain of S-adenosylmethionine synthase isoform type-2 (P18298 whole entry, canonical isoform): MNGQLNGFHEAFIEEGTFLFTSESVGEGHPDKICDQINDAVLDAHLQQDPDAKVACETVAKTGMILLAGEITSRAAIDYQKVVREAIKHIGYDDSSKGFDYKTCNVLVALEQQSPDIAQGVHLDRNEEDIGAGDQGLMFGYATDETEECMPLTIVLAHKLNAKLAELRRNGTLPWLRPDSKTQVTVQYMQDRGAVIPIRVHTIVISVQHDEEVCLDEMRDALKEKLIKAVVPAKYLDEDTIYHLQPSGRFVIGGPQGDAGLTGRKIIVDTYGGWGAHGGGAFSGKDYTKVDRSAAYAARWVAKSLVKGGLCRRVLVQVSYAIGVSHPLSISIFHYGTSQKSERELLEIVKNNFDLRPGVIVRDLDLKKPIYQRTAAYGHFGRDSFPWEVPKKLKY
Experimental: AdoMet synthetase activity was measured by a radioactive assay using (14C-methyl)-L-methionine as described by Sullivan and Hoffman with minor modification to give better efficiency in the separation of labelled residual methionine and AdoMet formed.
N[C@@H](C[C@@H]1CS1)C(=O)O [Epithioamino acid analogue, II(a)] showed an IC50 of 140 µM and a Ki of 100 µM.
C[C@H]1S[C@@H]1C[C@H](N)C(=O)O [Epithioamino acid analogue, II(b)] was tested, and the IC50 was 300 µM and the Ki was 140 µM.
C[C@@H]1S[C@@H]1C[C@H](N)C(=O)O [Epithioamino acid analogue, II(c)] gave an IC50 of 400 µM and a Ki of 140 µM.
For N[C@@H](C[C@H]1CO1)C(=O)O [Epoxy analogue, I(a)], the IC50 was 50 µM and the Ki was 7 µM.
Work on C[C@H]1O[C@H]1C[C@H](N)C(=O)O [Epoxy analogue, I(b)] yielded an IC50 of 100 µM and a Ki of 61 µM.
With C[C@@H]1O[C@H]1C[C@H](N)C(=O)O [Epoxy analogue, I(c)] the IC50 was 110 µM and the Ki was 105 µM.
